Assay results from PubChem BioAssay AID1845213 (Molecular Pharmacology Branch, DTP, NCI, 2023).
pIC50: −log10 of the molar value.

Test system: NCI-H841 complex tumor spheroid viability
Test: Anticancer human tumor NCI-H841 cell line growth inhibition;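 note: spheroids exposed to compounds for 7 days before readout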;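 for viability, T/C: 100% = DMSO vehicle control wells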
Conditions: for pIC50: curve of first compound; for viability, T/C: stronger effect = lower value
How it was run: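 Complex spheroids of malignant cells with endothelial cells and mesenchymal stem cells; agents alone or combined, from near clinical Cmax (or 10 microM if unknown) down in half-log steps, 0.25% DMSO final.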

[1] = second compound 0.003 µM, first compound 0.0316 µM
[2] = second compound 0.003 µM, first compound 0.1 µM
[3] = second compound 0.003 µM, first compound 0.316 µM
[4] = second compound 0.003 µM, first compound 1 µM
[5] = second compound 0.003 µM, first compound 3.16 µM
[6] = second compound 0.003 µM, first compound 10 µM
[7] = second compound 0.00949 µM, first compound 0.0316 µM
[8] = second compound 0.00949 µM, first compound 0.1 µM
[9] = second compound 0.00949 µM, first compound 0.316 µM
[10] = second compound 0.00949 µM, first compound 1 µM
[11] = second compound 0.00949 µM, first compound 3.16 µM
[12] = second compound 0.00949 µM, first compound 10 µM
[13] = second compound 0.03 µM, first compound 0.0316 µM
[14] = second compound 0.03 µM, first compound 0.1 µM
[15] = second compound 0.03 µM, first compound 0.316 µM
[16] = second compound 0.03 µM, first compound 1 µM
[17] = second compound 0.03 µM, first compound 3.16 µM
[18] = second compound 0.03 µM, first compound 10 µM
[19] = second compound 0.0949 µM, first compound 0.0316 µM
[20] = second compound 0.0949 µM, first compound 0.1 µM
[21] = second compound 0.0949 µM, first compound 0.316 µM
[22] = second compound 0.0949 µM, first compound 1 µM
[23] = second compound 0.0949 µM, first compound 3.16 µM
[24] = second compound 0.0949 µM, first compound 10 µM
[25] = second compound 0.3 µM, first compound 0.0316 µM
[26] = second compound 0.3 µM, first compound 0.1 µM
[27] = second compound 0.3 µM, first compound 0.316 µM
[28] = second compound 0.3 µM, first compound 1 µM
[29] = second compound 0.3 µM, first compound 3.16 µM
[30] = second compound 0.3 µM, first compound 10 µM

SMILES	pIC50 (second compound 0.003 µM)	pIC50 (second compound 0.00949 µM)	pIC50 (second compound 0.03 µM)	pIC50 (second compound 0.0949 µM)	pIC50 (second compound 0.3 µM)	viability, T/C [1]	viability, T/C [2]	viability, T/C [3]	viability, T/C [4]	viability, T/C [5]	viability, T/C [6]	viability, T/C [7]	viability, T/C [8]	viability, T/C [9]	viability, T/C [10]	viability, T/C [11]	viability, T/C [12]	viability, T/C [13]	viability, T/C [14]	viability, T/C [15]	other results
CC(C)n1c(=O)n(C)c2cnc3cc(F)c(-c4ccc(OCCCN5CCCCC5)nc4)cc3c21 + CC[C@@]1(O)C(=O)OCc2c1cc1n(c2=O)Cc2cc3c(CN(C)C)c(O)ccc3nc2-1	> 7.50	> 7.50	> 7.50	> 7.50	> 7.50	47%	51.3%	56.6%	63.5%	65.1%	43.2%	4.68%	4.13%	6.57%	6.6%	10.3%	7.04%	1.24%	1.19%	1.09%	viability, T/C [16]: 1.3%; viability, T/C [17]: 1.9%; viability, T/C [18]: 2.19%; viability, T/C [19]: 2.12%; viability, T/C [20]: 1.53%; viability, T/C [21]: 1.21%; viability, T/C [22]: 1.06%; viability, T/C [23]: 1.07%; viability, T/C [24]: 1.41%; viability, T/C [25]: 2.29%; viability, T/C [26]: 2.08%; viability, T/C [27]: 1.55%; viability, T/C [28]: 0.71%; viability, T/C [29]: 0.65%; viability, T/C [30]: 0.78%
COc1ccc([C@@H](O)c2cc(-c3ncnc4cc(N5CCOCC5)ccc34)c(F)cc2Cl)nn1 + CC[C@@]1(O)C(=O)OCc2c1cc1n(c2=O)Cc2cc3c(CN(C)C)c(O)ccc3nc2-1	5.42	5.91	> 7.50	> 7.50	> 7.50	95.6%	95.9%	94.9%	86.5%	58%	10.6%	83.1%	83.6%	76.3%	52.6%	27.9%	6.04%	4.02%	2.47%	1.69%	viability, T/C [16]: 1.88%; viability, T/C [17]: 1.8%; viability, T/C [18]: 1.21%; viability, T/C [19]: 1.56%; viability, T/C [20]: 1.55%; viability, T/C [21]: 1.96%; viability, T/C [22]: 1.31%; viability, T/C [23]: 0.92%; viability, T/C [24]: 0.89%; viability, T/C [25]: 1.74%; viability, T/C [26]: 1.64%; viability, T/C [27]: 1.32%; viability, T/C [28]: 1.22%; viability, T/C [29]: 0.55%; viability, T/C [30]: 0.42%
